Where “and” joins values, the source holds several entries; their conditions need not be identical. Equal entries are not always repeated.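 Grown in 96-well plates, cells were treated for 48 hours with each compound at five concentrations. Insufficient inhibition: endpoint recorded as highest concentration tested. At the GI50, growth is halved. The concentration for full growth arrest is given as TGI.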
Experiments:
Assay in all cases: NCI tumour cell line growth inhibition, 48 h
[1] = tested on: 786-0 renal
[2] = tested on: A498 renal
[3] = tested on: A549 NSCLC
[4] = tested on: ACHN renal
[5] = tested on: BT-549 breast
[6] = tested on: CAKI-1 renal
[7] = tested on: CCRF-CEM leukemia
[8] = tested on: COLO 205 colon
[9] = tested on: DU-145 prostate
[10] = tested on: EKVX NSCLC
[11] = tested on: HCT-116 colon
[12] = tested on: HCT-15 colon
[13] = tested on: HL-60(TB) leukemia
[14] = tested on: HOP-92 NSCLC
[15] = tested on: HS 578T breast
[16] = tested on: HT29 colon
[17] = tested on: IGROV1 ovarian
[18] = tested on: KM12 colon
[19] = tested on: M14 melanoma
[20] = tested on: MDA-MB-231 breast
[21] = tested on: MDA-MB-435
[22] = tested on: NCI-H226 lung
[23] = tested on: NCI-H23 lung
[24] = tested on: NCI-H460 lung
[25] = tested on: NCI-H522 lung
[26] = tested on: NCI/ADR-RES ovarian
[27] = tested on: OVCAR-4 ovarian
[28] = tested on: OVCAR-5 ovarian
[29] = tested on: OVCAR-8 ovarian
[30] = tested on: PC-3 prostate
[31] = tested on: SF-268 CNS
[32] = tested on: SF-295 CNS
[33] = tested on: SK-MEL-2 melanoma
[34] = tested on: SK-MEL-28 melanoma
[35] = tested on: SK-OV-3 ovarian
[36] = tested on: SN12C renal
[37] = tested on: SNB-19 CNS
[38] = tested on: SR leukemia
[39] = tested on: SW-620 colon
[40] = tested on: TK-10 renal
[41] = tested on: U251 CNS
[42] = tested on: UACC-62 melanoma
[43] = tested on: UO-31 renal

COc1ccc(C2c3cc4c(c(OC)c3CC3OCC(=O)C32)OCO4)cc1OC (stereo not given)
GI50 [1]: < 10 nM
TGI [1]: > 100000 nM
GI50 [2]: < 10 nM
TGI [2]: > 100000 nM
GI50 [3]: < 10 nM
TGI [3]: > 100000 nM
TGI [4]: 71700 nM
GI50 [5]: < 10 nM
TGI [5]: > 100000 nM
GI50 [6]: < 10 nM
TGI [6]: 11300 nM
GI50 [7]: < 10 nM
TGI [7]: < 10 nM
GI50 [8]: < 10 nM
TGI [8]: 74 nM and 13.5 nM
GI50 [9]: < 10 nM
GI50 [10]: < 10 nM
TGI [10]: > 100000 nM
GI50 [11]: < 10 nM
GI50 [12]: < 10 nM
TGI [12]: > 100000 nM
TGI [13]: < 10 nM
TGI [14]: > 100000 nM
TGI [15]: 46400 nM
TGI [16]: 104 nM
TGI [17]: > 100000 nM
GI50 [18]: < 10 nM
TGI [18]: 221 nM and 1010 nM
GI50 [19]: < 10 nM
TGI [19]: > 100000 nM
GI50 [20]: < 10 nM
TGI [20]: 123 nM
TGI [21]: > 100000 nM
GI50 [22]: < 10 nM
TGI [22]: > 100000 nM
GI50 [23]: < 10 nM
GI50 [24]: < 10 nM
TGI [24]: 14300 nM
TGI [25]: 18.1 nM
GI50 [26]: < 10 nM
TGI [26]: 28400 nM
GI50 [27]: 15700 nM
TGI [27]: > 100000 nM
GI50 [28]: > 100000 nM
TGI [28]: > 100000 nM
GI50 [29]: < 10 nM
TGI [29]: 46900 nM
GI50 [30]: < 10 nM
TGI [30]: > 100000 nM
GI50 [31]: < 10 nM
TGI [31]: > 100000 nM
GI50 [32]: < 10 nM
TGI [32]: < 10 nM
TGI [33]: > 100000 nM
TGI [34]: > 100000 nM
GI50 [35]: < 10 nM
TGI [35]: > 100000 nM
TGI [36]: > 100000 nM
GI50 [37]: < 10 nM
TGI [37]: > 100000 nM
TGI [38]: < 10 nM
GI50 [39]: < 10 nM
TGI [39]: > 100000 nM
TGI [40]: > 100000 nM
GI50 [41]: < 10 nM
TGI [41]: > 100000 nM
GI50 [42]: < 10 nM
TGI [42]: > 100000 nM
GI50 [43]: < 10 nM
TGI [43]: 48400 nM

— PubChem BioAssay (NCI)
